Measured values from ChEMBL document CHEMBL3352641, “Discovery of pyrrolo[1,2-b]pyridazine-3-carboxamides as Janus kinase (JAK) inhibitors” (Bioorg Med Chem Lett, 2014).

Columns and labels:
[1] = (§1) Fraction unbound in human serum; type: ADME, cell-free
[2] = molecular target: T1, Tyrosine-protein kinase JAK3 (Homo sapiens, UniProt P52333); experiment: Inhibition of JAK3 (unknown origin) by filter assay
T1 sequence (P52333 whole entry): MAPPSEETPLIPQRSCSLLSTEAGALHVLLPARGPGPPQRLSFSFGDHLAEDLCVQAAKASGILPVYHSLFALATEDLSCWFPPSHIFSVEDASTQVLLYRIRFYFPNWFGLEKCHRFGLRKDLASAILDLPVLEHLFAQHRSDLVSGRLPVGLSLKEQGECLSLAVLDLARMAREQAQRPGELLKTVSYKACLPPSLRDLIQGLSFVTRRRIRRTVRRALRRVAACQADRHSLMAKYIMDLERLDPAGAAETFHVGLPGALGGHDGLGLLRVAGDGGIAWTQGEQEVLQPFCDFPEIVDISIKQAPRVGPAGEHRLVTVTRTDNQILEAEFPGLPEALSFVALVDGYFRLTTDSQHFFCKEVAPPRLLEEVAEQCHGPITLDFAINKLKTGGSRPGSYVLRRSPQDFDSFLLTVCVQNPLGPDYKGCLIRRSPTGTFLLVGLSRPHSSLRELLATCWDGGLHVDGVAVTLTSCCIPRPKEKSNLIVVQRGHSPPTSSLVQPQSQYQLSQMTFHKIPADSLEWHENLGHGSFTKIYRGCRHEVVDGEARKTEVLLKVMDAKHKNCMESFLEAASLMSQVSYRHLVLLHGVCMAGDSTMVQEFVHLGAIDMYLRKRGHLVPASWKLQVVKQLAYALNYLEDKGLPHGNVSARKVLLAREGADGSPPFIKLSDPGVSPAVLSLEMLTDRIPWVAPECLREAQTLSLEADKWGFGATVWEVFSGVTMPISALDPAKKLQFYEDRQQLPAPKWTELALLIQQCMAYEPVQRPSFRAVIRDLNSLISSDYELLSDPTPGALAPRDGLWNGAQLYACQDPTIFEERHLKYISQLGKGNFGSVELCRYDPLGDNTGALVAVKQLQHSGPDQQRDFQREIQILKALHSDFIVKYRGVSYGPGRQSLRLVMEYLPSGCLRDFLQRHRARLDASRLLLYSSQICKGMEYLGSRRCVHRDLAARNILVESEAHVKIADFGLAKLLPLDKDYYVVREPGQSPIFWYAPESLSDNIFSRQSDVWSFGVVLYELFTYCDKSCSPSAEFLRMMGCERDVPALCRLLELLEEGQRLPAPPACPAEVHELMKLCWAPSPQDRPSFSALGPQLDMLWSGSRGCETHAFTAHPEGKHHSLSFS

[3] = molecular target: Tyrosine-protein kinase JAK2 (Homo sapiens, UniProt O60674); experiment: Inhibition of JAK2 (unknown origin) by caliper assay
Sequence of Tyrosine-protein kinase JAK2 (O60674 whole entry): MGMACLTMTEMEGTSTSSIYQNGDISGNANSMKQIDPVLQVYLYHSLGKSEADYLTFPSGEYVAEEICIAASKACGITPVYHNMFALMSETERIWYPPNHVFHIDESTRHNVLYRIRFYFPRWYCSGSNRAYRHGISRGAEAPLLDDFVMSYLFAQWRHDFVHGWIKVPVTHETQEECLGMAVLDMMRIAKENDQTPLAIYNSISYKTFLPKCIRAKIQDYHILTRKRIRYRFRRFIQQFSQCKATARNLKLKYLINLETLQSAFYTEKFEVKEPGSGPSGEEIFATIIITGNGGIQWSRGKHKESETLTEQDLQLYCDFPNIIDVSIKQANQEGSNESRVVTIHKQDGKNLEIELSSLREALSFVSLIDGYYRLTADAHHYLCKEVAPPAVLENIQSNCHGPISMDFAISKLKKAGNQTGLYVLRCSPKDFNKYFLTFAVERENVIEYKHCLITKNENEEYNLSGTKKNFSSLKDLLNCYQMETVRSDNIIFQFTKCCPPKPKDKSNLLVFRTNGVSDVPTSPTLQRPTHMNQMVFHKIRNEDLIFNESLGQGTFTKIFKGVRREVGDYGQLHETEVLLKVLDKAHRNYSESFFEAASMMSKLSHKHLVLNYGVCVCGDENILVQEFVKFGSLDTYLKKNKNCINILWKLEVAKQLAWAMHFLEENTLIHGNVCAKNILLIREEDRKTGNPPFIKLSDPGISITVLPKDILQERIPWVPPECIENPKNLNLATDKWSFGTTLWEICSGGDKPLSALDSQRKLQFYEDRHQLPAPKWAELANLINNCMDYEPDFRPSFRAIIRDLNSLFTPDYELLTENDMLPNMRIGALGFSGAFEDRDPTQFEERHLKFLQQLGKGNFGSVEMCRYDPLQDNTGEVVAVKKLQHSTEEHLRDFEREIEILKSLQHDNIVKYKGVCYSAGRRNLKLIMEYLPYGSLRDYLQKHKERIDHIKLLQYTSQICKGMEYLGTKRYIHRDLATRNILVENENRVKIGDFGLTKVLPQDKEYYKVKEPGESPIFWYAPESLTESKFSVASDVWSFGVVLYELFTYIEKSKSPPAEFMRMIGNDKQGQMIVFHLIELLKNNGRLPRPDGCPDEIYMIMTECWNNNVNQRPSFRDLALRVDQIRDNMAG

Blood = experiment: Inhibition of IL2-induced IFN-gamma production in human whole blood incubated for 18 hrs by ELISA method; type: functional, tissue-based
[4] = molecular target: Tyrosine-protein kinase JAK1 (Homo sapiens, UniProt P23458); experiment: Inhibition of JAK1 (unknown origin) bycaliper assay
Sequence of Tyrosine-protein kinase JAK1 (P23458 whole entry): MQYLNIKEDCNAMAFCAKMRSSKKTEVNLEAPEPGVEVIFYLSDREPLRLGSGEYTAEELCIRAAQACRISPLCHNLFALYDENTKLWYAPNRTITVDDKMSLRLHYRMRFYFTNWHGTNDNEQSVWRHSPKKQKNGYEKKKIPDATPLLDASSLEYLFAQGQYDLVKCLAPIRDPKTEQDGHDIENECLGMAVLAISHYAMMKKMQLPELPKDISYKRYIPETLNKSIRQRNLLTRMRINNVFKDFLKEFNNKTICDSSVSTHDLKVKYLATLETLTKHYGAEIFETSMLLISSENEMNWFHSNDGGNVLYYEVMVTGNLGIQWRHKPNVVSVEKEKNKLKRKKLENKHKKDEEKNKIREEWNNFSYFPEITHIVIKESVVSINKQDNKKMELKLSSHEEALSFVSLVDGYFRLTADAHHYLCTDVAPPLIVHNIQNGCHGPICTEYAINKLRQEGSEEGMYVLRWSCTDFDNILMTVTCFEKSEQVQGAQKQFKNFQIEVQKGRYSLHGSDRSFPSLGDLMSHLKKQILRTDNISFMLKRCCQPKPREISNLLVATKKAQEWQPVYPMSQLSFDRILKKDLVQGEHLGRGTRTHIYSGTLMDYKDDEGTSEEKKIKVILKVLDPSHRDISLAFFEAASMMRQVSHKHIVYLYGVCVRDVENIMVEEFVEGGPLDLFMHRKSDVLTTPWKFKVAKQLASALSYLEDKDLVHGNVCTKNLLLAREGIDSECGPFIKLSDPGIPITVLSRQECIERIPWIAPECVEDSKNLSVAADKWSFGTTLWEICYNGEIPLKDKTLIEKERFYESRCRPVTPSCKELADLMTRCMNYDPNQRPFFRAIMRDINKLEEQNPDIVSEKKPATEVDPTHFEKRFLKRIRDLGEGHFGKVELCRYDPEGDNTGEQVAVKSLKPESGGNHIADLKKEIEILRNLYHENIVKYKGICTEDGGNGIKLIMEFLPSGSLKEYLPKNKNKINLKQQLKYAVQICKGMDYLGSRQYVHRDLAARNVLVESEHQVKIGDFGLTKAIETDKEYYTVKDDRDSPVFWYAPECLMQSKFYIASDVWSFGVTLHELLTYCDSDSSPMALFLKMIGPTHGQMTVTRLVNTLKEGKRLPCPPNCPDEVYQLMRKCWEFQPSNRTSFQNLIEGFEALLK

[5] = molecular target: Non-receptor tyrosine-protein kinase TYK2 (Homo sapiens, UniProt P29597); experiment: Inhibition of TYK2 (unknown origin) by caliper assay
Sequence of Non-receptor tyrosine-protein kinase TYK2 (P29597 whole entry): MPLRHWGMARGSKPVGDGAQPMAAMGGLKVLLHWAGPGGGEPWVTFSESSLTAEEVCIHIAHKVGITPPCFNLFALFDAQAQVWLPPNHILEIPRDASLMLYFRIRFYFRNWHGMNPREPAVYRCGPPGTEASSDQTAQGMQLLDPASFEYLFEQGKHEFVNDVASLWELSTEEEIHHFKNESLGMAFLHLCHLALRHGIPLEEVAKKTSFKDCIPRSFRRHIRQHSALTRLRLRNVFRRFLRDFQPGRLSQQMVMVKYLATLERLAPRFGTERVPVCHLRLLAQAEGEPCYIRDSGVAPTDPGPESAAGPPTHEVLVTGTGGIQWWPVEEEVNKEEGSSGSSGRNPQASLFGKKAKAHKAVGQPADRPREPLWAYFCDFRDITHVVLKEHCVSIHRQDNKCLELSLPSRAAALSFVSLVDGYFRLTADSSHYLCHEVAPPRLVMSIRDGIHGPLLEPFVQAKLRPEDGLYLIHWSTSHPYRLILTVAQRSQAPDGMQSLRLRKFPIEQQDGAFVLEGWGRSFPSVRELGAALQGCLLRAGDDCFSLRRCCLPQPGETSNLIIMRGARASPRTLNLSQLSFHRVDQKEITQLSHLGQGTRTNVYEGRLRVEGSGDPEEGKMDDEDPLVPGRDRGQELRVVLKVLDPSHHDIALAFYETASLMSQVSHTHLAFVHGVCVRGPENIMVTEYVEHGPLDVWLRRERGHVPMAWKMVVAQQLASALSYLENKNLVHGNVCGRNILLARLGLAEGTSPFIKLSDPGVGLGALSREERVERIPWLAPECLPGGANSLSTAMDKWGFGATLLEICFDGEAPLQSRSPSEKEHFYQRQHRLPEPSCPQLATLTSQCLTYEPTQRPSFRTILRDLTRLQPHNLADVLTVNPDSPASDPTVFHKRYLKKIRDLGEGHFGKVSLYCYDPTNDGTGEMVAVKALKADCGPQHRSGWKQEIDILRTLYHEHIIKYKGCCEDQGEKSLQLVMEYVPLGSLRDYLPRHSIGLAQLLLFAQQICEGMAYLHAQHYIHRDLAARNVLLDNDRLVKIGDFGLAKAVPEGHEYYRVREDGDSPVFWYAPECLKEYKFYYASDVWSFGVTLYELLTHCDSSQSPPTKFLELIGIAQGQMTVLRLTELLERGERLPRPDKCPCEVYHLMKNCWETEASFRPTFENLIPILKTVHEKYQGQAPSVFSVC

Serum = experiment: as §1; type: ADME, cell-free
[6] = Protein binding in human serum; type: ADME, cell-free; conditions: read-out: PB (converted)

| SMILES | fraction unbound [1] | IC50 [2] | IC50 [3] | IC50 (Blood) | IC50 [4] | IC50 [5] | Fu (Serum) | fraction unbound [6] |
| --- | --- | --- | --- | --- | --- | --- | --- | --- |
| C[C@@]1(F)CCC[C@@H]1Nc1c(C(N)=O)cnn2cccc12 | – | 47 nM | 130 nM | – | 190 nM | 400 nM | – | – |
| CC1(C)[C@H](Nc2c(C(N)=O)cnn3cccc23)CC[C@]1(C)N | – | 5 nM | 62 nM | 210 nM | 19 nM | 97 nM | 52% | – |
| C[C@]1(C#N)CCC[C@H]1Nc1c(C(N)=O)cnn2cccc12 (racemic) | 0.27 | 10 nM | – | 250 nM | 15 nM | 6 nM | – | – |
| CC1(C)[C@H](N)CC[C@H]1Nc1c(C(N)=O)cnn2cccc12 (racemic) | – | 24 nM | 170 nM | 250 nM | 41 nM | 110 nM | – | – |
| C[C@@]1(F)CCC[C@H]1Nc1c(C(N)=O)cnn2cccc12 (racemic) | – | 43 nM | 210 nM | – | 100 nM | 110 nM | – | – |
| CC1(C)C[C@@](C)(O)C[C@H]1Nc1c(C(N)=O)cnn2cccc12 (racemic) | – | 30 nM | 350 nM | 3200 nM | 150 nM | 280 nM | – | – |
| CC1(C)CCC[C@H]1Nc1c(C(N)=O)cnn2cccc12 | 0.019 | 5 nM | 16 nM | 1200 nM | 24 nM | 8 nM | – | 0.019 |

Further molecules by falling IC50 [2], results first:

| fraction unbound [1] | IC50 [2] | IC50 [3] | IC50 (Blood) | IC50 [4] | IC50 [5] | Fu (Serum) | fraction unbound [6] | SMILES |
| --- | --- | --- | --- | --- | --- | --- | --- | --- |
| – | 110 nM | 570 nM | – | 270 nM | 680 nM | – | – | C[C@H](Nc1c(C(N)=O)cnn2cccc12)C(C)(C)C |
| – | 67 nM | – | – | 61 nM | 30 nM | – | – | C[C@@]1(C#N)CCC[C@H]1Nc1c(C(N)=O)cnn2cccc12 (racemic) |
| – | 28 nM | 100 nM | 5000 nM | 67 nM | 210 nM | – | – | CC1(C)[C@H](Nc2c(C(N)=O)cnn3cccc23)CC[C@]1(C)O (racemic) |
| – | 16 nM | 130 nM | 1200 nM | 62 nM | 79 nM | – | – | CC1(C)[C@@H](O)CC[C@H]1Nc1c(C(N)=O)cnn2cccc12 (racemic) |
| 0.17 | 6 nM | 42 nM | 380 nM | 21 nM | 22 nM | – | – | CC1(C)[C@H](O)CC[C@H]1Nc1c(C(N)=O)cnn2cccc12 (racemic) |
